What was measured:
[1] = system: S. pneumoniae; experiment: Biological activity against bacterial strains: S. pneumoniae; type: cell-based, Streptococcus pneumoniae; design: Biological Activity, S. pneumoniae ATCC6301 / Biological Activity, S. pneumoniae ATCC700671 / Biological Activity, S. pneumoniae ATCC700676* / Biological Activity, S. pneumoniae ATCC700677* / Biological Activity, S. pneumoniae ATCC700905* / Biological Activity, S. pneumoniae ATCC700906* / Biological Activity, S. pneumoniae ATCC49619: unit not given here; details: for Biological Activity, S. pneumoniae ATCC6301: strain ATCC6301; for Biological Activity, S. pneumoniae ATCC49619: strain ATCC49619; for Biological Activity, S. pneumoniae ATCC700671: strain ATCC700671; for Biological Activity, S. pneumoniae ATCC700676*: strain ATCC700676, macrolide resistant strain; for Biological Activity, S. pneumoniae ATCC700677*: strain ATCC700677, macrolide resistant strain; for Biological Activity, S. pneumoniae ATCC700905*: strain ATCC700905, macrolide resistant strain; for Biological Activity, S. pneumoniae ATCC700906*: strain ATCC700906, macrolide resistant strain
[2] = system: S. aureus; experiment: Biological activity against bacterial strains: S. aureus; type: cell-based, Staphylococcus aureus; design: unit not given here; details: for Biological Activity, S. aureus ATCC6538p: strain ATCC6538p; for Biological Activity, S. aureus ATCC14154*: strain ATCC14154, macrolide resistant strain; for Biological Activity, S. aureus ATCC29213: strain ATCC29213; for Biological Activity, S. aureus ATCC33591*: strain ATCC33591, macrolide resistant strain; for Biological Activity, S. aureus ATCCBAA-39*: strain ATCCBAA-39, macrolide resistant strain; for Biological Activity, S. aureus ATCCBAA-44*: strain ATCCBAA-44, macrolide resistant strain
[3] = system: E. faecalis; experiment: Biological activity against bacterial strains: E. faecalis; type: cell-based, Enterococcus faecalis; details: strain ATCC51575
[4] = system: S. epidermidis; experiment: Biological activity against bacterial strains: S. epidermidis; type: cell-based, Staphylococcus epidermidis; details: strain ATCC12228
[5] = system: Haemophilus Influenzae; experiment: H. influenzae Activity; type: cell-based; details: for potency against H. influenzae (in words): compared to compound A, OMT and Ketek

SMILES | Biological Activity, S. pneumoniae ATCC6301 [1] | Biological Activity, S. pneumoniae ATCC49619 [1] | Biological Activity, S. pneumoniae ATCC700671 [1] | Biological Activity, S. pneumoniae ATCC700676* [1] | Biological Activity, S. pneumoniae ATCC700677* [1] | Biological Activity, S. pneumoniae ATCC700905* [1] | Biological Activity, S. pneumoniae ATCC700906* [1] | Biological Activity, S. aureus ATCC6538p [2] | Biological Activity, S. aureus ATCC14154* [2] | Biological Activity, S. aureus ATCC29213 [2] | Biological Activity, S. aureus ATCC33591* [2] | Biological Activity, S. aureus ATCCBAA-39* [2] | Biological Activity, S. aureus ATCCBAA-44* [2] | Biological Activity, E. faecalis ATCC51575 [3] | Biological Activity, S. epidermidis ATCC12228 [4] | H. influenzae Activity, strain ATCC9006 [5] | H. influenzae Activity, strain ATCC49766 [5] | H. influenzae Activity, strain EH001 [5] | H. influenzae Activity, strain EH002 [5] | H. influenzae Activity, strain EH003 [5] | other results
CCC1OC(=O)CC(O)C(C)C(OC2OC(C)C(O)C(N(C)C)C2O)C(CC=O)CC(C)C(=NOCCCOc2ccc3ncccc3c2)C=CC(C)=CC1COC1OC(C)C(O)C(OC)C1OC (single isomer, unassigned) [Compound AA] | 0.025 | 6.25 | >12.5 | 0.049 | 6.25 | 6.25 | >12.5 | 0.39 | 0.78 | 0.78 | >12.5 | >12.5 | >12.5 | >12.5 | 0.78 | – | – | – | – | – | –
CCC1OC(=O)CC(O)C(C)C(OC2OC(C)C(O)C(N(C)C)C2O)C(CC=O)CC(C)C(=NOCCCOc2ccc3ncccc3c2)C=CC(C)=CC1COC1OC(C)C(O)C(OC)C1OC (single isomer, unassigned) [Compound BB] | 0.025 | 0.049 | 0.049 | 0.049 | 0.025 | 0.025 | >12.5 | 0.2 | 0.78 | 0.39 | >12.5 | >12.5 | >12.5 | >12.5 | 0.39 | – | – | – | – | – | –
CCC1OC(=O)CC(O)C(C)C(OC2OC(C)C(O)C(N(C)C)C2O)C(CC=O)CC(C)C(=NOCC#Cc2cnc3ccccc3c2)C=CC(C)=CC1CO (single isomer, unassigned) [Compound D] | 0.025 | 0.049 | 0.049 | 0.049 | >12.5 | 0.049 | >12.5 | 0.098 | 0.78 | 0.39 | >12.5 | >12.5 | >12.5 | >12.5 | 0.20 | – | – | – | – | – | –
CCC1OC(=O)CC(O)C(C)C(OC2OC(C)C(O)C(N(C)C)C2O)C(CC=O)CC(C)C(=NOCC=Cc2cnc3ccccc3c2)C=CC(C)=CC1CO (single isomer, unassigned) [Compound F] | 0.025 | 0.025 | 0.049 | 0.049 | >12.5 | 0.049 | >12.5 | 0.098 | 0.39 | 0.39 | >12.5 | >12.5 | >12.5 | >12.5 | 0.049 | – | – | – | – | – | –
CCC1OC(=O)CC(O)C(C)C(OC2OC(C)C(O)C(N(C)C)C2O)C(CC=O)CC(C)C(=NOCC=Cc2cnc3ccccc3c2)C=CC(C)=CC1CO (single isomer, unassigned) [Compound G] | 0.025 | 0.025 | 0.025 | 0.049 | >12.5 | 0.049 | >12.5 | 0.20 | 0.78 | 0.78 | >12.5 | >12.5 | >12.5 | >12.5 | 0.39 | – | – | – | – | – | –
CCC1OC(=O)CC(O)C(C)C(OC2OC(C)C(O)C(N(C)C)C2O)C(CC=O)CC(C)C(=NOCCCOc2ccc3ncccc3c2)C=CC(C)=CC1CN(C)C (single isomer, unassigned) [Compound Y] | 0.025 | 0.025 | 0.098 | 0.025 | >12.5 | 0.025 | >12.5 | – | – | – | – | – | – | – | – | 1.56 | 3.12 | 3.12 | 6.25 | 3.12 | activity / potency against S. pneumoniae (in words) [1]: essentially remained unchanged; potency against H. influenzae (in words) [5]: improved potency against H. influenzae, to a level similar to OMT and Ketek™
CCC1OC(=O)CC(O)C(C)C(OC2OC(C)C(O)C(N(C)C)C2O)C(CC=O)CC(C)C(=NOCCCOc2ccc3ncccc3c2)C=CC(C)=CC1CN(C)C (single isomer, unassigned) [Compound Z] | 0.025 | 0.049 | 0.049 | 0.025 | >12.5 | 0.025 | >12.5 | – | – | – | – | – | – | – | – | 1.56 | 3.12 | 3.12 | 3.12 | 1.56 | activity / potency against S. pneumoniae (in words) [1]: essentially remained unchanged; potency against H. influenzae (in words) [5]: improved potency against H. influenzae, to a level similar to OMT and Ketek™
CC[C@H]1OC(=O)[C@H](C)[C@@H](O[C@H]2C[C@@](C)(OC)[C@@H](O)[C@H](C)O2)[C@H](C)[C@@H](O[C@@H]2O[C@H](C)C[C@H](N(C)C)[C@H]2O)[C@](C)(O)C[C@@H](C)C(=O)[C@H](C)[C@@H](O)[C@]1(C)O [Ery A, erythromycin A, reference compound] | 0.025 | 0.049 | 0.049 | 6.25 | 6.25 | 3.12 | – | 0.098 | – | 0.20 | – | – | – | – | 0.20 | 1.56 | 6.25 | 3.12 | 6.25 | 3.12 | –
CC[C@H]1OC(=O)[C@H](C)C(=O)[C@H](C)[C@@H](O[C@@H]2O[C@H](C)C[C@H](N(C)C)[C@H]2O)[C@](C)(OC)C[C@@H](C)C(=O)[C@H](C)[C@H]2N(CCCCn3cnc(-c4cccnc4)c3)C(=O)O[C@]12C [Ketek, telithromycin, reference compound] | – | – | – | – | – | – | – | – | – | – | – | – | – | – | – | 1.56 | 3.12 | 1.56 | 6.25 | 1.56 | –

— US7247617B2, “Sixteen-member macrolide antiinfective agents” (Kosan Biosciences Incorporated, priority 2004, dated 2007)
